Reference: patent US10597388B2, “Pyridazinone herbicides” (FMC CORPORATION, priority 2014, dated 2020)

Assays:
Assay in all cases: Test E greenhouse herbicide test, pre- and postemergence
Type in all cases: in vivo
[1] = system: soybean (Glycine max)
In short: (§1)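 Compounds in a non-phytotoxic solvent mixture with surfactant were applied preemergence to seeds in silt loam soil and postemergence to 2-18 cm plants (1- to 4-leaf stage) in peat-based medium. After 14 to 21 d in a greenhouse, injury was rated visually against untreated controls on a 0 (no effect) to 100 (complete control) scale.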

[2] = system: foxtail, giant (giant foxtail, Setaria faberii); details: Preemergence
In short: as §1

[3] = system: beggarticks (hairy beggarticks, Bidens pilosa)
In short: as §1

[4] = system: panicum, fall (fall panicum, Panicum dichotomiflorum)
In short: as §1

[5] = system: ragweed (common ragweed, Ambrosia elatior)
In short: as §1

[6] = system: velvetleaf (Abutilon theophrasti); details: Preemergence
In short: as §1

[7] = system: dayflower (Virginia (VA) dayflower, Commelina virginica)
In short: as §1

[8] = system: horseweed (Conyza canadensis)
In short: as §1

[9] = system: pigweed, palmer (palmer pigweed, Amaranthus palmeri)
In short: as §1

[10] = system: barnyardgrass (Echinochloa crus-galli)
In short: as §1

[11] = system: nutsedge, yellow (yellow nutsedge, Cyperus esculentus); details: Preemergence
In short: as §1

[12] = system: sandbur (southem sandbur, Cenchrus echinatus)
In short: as §1

[13] = system: lambsquarters (Chenopodium album); details: Preemergence
In short: as §1

[14] = system: johnsongrass (Sorghum halepense); details: Preemergence
In short: as §1

[15] = system: corn (Zea mays)
In short: as §1

[16] = system: foxtail, green (green foxtail, Setaria viridis); details: Preemergence
In short: as §1

[17] = 62 g ai/ha, Postemergence, scale 0 to 100 (0 no effect, 100 complete control)
[18] = 62 g ai/ha, Preemergence, scale 0 to 100 (0 no effect, 100 complete control)
[19] = 125 g ai/ha, Postemergence, scale 0 to 100 (0 no effect, 100 complete control)
[20] = 125 g ai/ha, Preemergence, scale 0 to 100 (0 no effect, 100 complete control)
[21] = 250 g ai/ha, Postemergence, scale 0 to 100 (0 no effect, 100 complete control)
[22] = Postemergence, 31 g ai/ha, visual, scale 0 no effect to 100 complete control
[23] = Preemergence, 31 g ai/ha, scale 0 to 100, 0 no effect, 100 complete control
[24] = Preemergence, 250 g ai/ha, visual, scale 0 no effect to 100 complete control
[25] = 62 g ai/ha, scale 0 to 100 (0 no effect, 100 complete control)
[26] = 31 g ai/ha, scale 0 to 100, 0 no effect, 100 complete control
[27] = 125 g ai/ha, visual, scale 0 no effect to 100 complete control
[28] = 250 g ai/ha, visual, scale 0 no effect to 100 complete control
[29] = Preemergence, 125 g ai/ha, visual, scale 0 no effect to 100 complete control
[30] = 125 g ai/ha, scale 0 to 100 (0 no effect, 100 complete control)
[31] = Postemergence, 16 g ai/ha, visual, scale 0 no effect to 100 complete control
[32] = Preemergence, 16 g ai/ha, scale 0 to 100, 0 no effect, 100 complete control
[33] = 16 g ai/ha, scale 0 to 100, 0 no effect, 100 complete control

Cc1nn(C)c(=O)c(-c2ccc(F)c3ccccc23)c1O [Compound 41]
Plant response rating, Soybean [1, 17]: 40 | Plant response rating, Soybean [1, 18]: 35 | Plant response rating, Soybean [1, 19]: 60 | Plant response rating, Soybean [1, 20]: 20 | Plant response rating, Soybean [1, 21]: 75 | Plant response rating, Soybean [1, 22]: 30 | Plant response rating, Soybean [1, 23]: 0 | Plant response rating, Soybean [1, 24]: 65 | Plant response rating, Foxtail, Giant [2, 25]: 65 | Plant response rating, Foxtail, Giant [2, 26]: 30 | Plant response rating, Foxtail, Giant [2, 27]: 70 | Plant response rating, Foxtail, Giant [2, 28]: 90 | Plant response rating, Beggarticks [3, 17]: 95 | Plant response rating, Beggarticks [3, 18]: 98 | Plant response rating, Beggarticks [3, 19]: 95 | Plant response rating, Beggarticks [3, 21]: 100 | Plant response rating, Beggarticks [3, 22]: 100 | Plant response rating, Beggarticks [3, 23]: 65 | Plant response rating, Beggarticks [3, 29]: 100 | Plant response rating, Beggarticks [3, 24]: 100 | Plant response rating, Panicum, Fall [4, 17]: 25 | Plant response rating, Panicum, Fall [4, 18]: 90 | Plant response rating, Panicum, Fall [4, 19]: 30 | Plant response rating, Panicum, Fall [4, 20]: 95 | Plant response rating, Panicum, Fall [4, 21]: 50 | Plant response rating, Panicum, Fall [4, 22]: 15 | Plant response rating, Panicum, Fall [4, 23]: 80 | Plant response rating, Panicum, Fall [4, 24]: 98 | Plant response rating, Ragweed [5, 18]: 70 | Plant response rating, Ragweed [5, 19]: 90 | Plant response rating, Ragweed [5, 20]: 90 | Plant response rating, Ragweed [5, 21]: 95 | Plant response rating, Ragweed [5, 22]: 80 | Plant response rating, Ragweed [5, 23]: 5 | Plant response rating, Ragweed [5, 24]: 100 | Plant response rating, Velvetleaf [6, 25]: 85 | Plant response rating, Velvetleaf [6, 30]: 95 | Plant response rating, Velvetleaf [6, 26]: 20 | Plant response rating, Velvetleaf [6, 28]: 100 | Plant response rating, Dayflower, VA [7, 17]: 40 | Plant response rating, Dayflower, VA [7, 18]: 40 | Plant response rating, Dayflower, VA [7, 19]: 85 | Plant response rating, Dayflower, VA [7, 21]: 90 | Plant response rating, Dayflower, VA [7, 22]: 50 | Plant response rating, Dayflower, VA [7, 23]: 15 | Plant response rating, Dayflower, VA [7, 29]: 70 | Plant response rating, Dayflower, VA [7, 24]: 80 | Plant response rating, Horseweed [8, 17]: 80 | Plant response rating, Horseweed [8, 18]: 100 | Plant response rating, Horseweed [8, 19]: 80 | Plant response rating, Horseweed [8, 21]: 70 | Plant response rating, Horseweed [8, 22]: 75 | Plant response rating, Horseweed [8, 23]: 100 | Plant response rating, Horseweed [8, 29]: 100 | Plant response rating, Horseweed [8, 24]: 100 | Plant response rating, Pigweed, Palmer [9, 17]: 60 | Plant response rating, Pigweed, Palmer [9, 18]: 85 | Plant response rating, Pigweed, Palmer [9, 19]: 90 | Plant response rating, Pigweed, Palmer [9, 20]: 75 | Plant response rating, Pigweed, Palmer [9, 21]: 95 | Plant response rating, Pigweed, Palmer [9, 22]: 50 | Plant response rating, Pigweed, Palmer [9, 23]: 15 | Plant response rating, Pigweed, Palmer [9, 24]: 85 | Plant response rating, Barnyardgrass [10, 17]: 35 | Plant response rating, Barnyardgrass [10, 18]: 25 | Plant response rating, Barnyardgrass [10, 19]: 50 | Plant response rating, Barnyardgrass [10, 21]: 60 | Plant response rating, Barnyardgrass [10, 22]: 20 | Plant response rating, Barnyardgrass [10, 23]: 10 | Plant response rating, Barnyardgrass [10, 29]: 40 | Plant response rating, Barnyardgrass [10, 24]: 65 | Plant response rating, Nutsedge, Yellow [11, 25]: 65 | Plant response rating, Nutsedge, Yellow [11, 30]: 75 | Plant response rating, Nutsedge, Yellow [11, 26]: 25 | Plant response rating, Nutsedge, Yellow [11, 28]: 85 | Plant response rating, Sandbur [12, 17]: 50 | Plant response rating, Sandbur [12, 18]: 70 | Plant response rating, Sandbur [12, 19]: 70 | Plant response rating, Sandbur [12, 20]: 75 | Plant response rating, Sandbur [12, 21]: 75 | Plant response rating, Sandbur [12, 22]: 60 | Plant response rating, Sandbur [12, 23]: 50 | Plant response rating, Sandbur [12, 24]: 80 | Plant response rating, Lambsquarters [13, 25]: 100 | Plant response rating, Lambsquarters [13, 26]: 35 | Plant response rating, Lambsquarters [13, 27]: 100 | Plant response rating, Lambsquarters [13, 28]: 100 | Plant response rating, Johnsongrass [14, 25]: 0 | Plant response rating, Johnsongrass [14, 26]: 0 | Plant response rating, Johnsongrass [14, 27]: 0 | Plant response rating, Johnsongrass [14, 28]: 25 | Plant response rating, Corn [15, 17]: 0 | Plant response rating, Corn [15, 18]: 0 | Plant response rating, Corn [15, 19]: 0 | Plant response rating, Corn [15, 21]: 5 | Plant response rating, Corn [15, 22]: 0 | Plant response rating, Corn [15, 23]: 0 | Plant response rating, Corn [15, 29]: 0 | Plant response rating, Corn [15, 24]: 25 | Plant response rating, Foxtail, Green [16, 25]: 25 | Plant response rating, Foxtail, Green [16, 26]: 20 | Plant response rating, Foxtail, Green [16, 27]: 50 | Plant response rating, Foxtail, Green [16, 28]: 75

CCCC(=O)Oc1c(C)nn(C)c(=O)c1-c1c(C)sc2ccc(C)cc12 [Compound 105]
Plant response rating, Soybean [1, 18]: 0 | Plant response rating, Soybean [1, 19]: 25 | Plant response rating, Soybean [1, 20]: 75 | Plant response rating, Soybean [1, 31]: 0 | Plant response rating, Soybean [1, 22]: 10 | Plant response rating, Soybean [1, 32]: 0 | Plant response rating, Soybean [1, 23]: 0 | Plant response rating, Foxtail, Giant [2, 25]: 35 | Plant response rating, Foxtail, Giant [2, 30]: 75 | Plant response rating, Foxtail, Giant [2, 33]: 0 | Plant response rating, Foxtail, Giant [2, 26]: 0 | Plant response rating, Beggarticks [3, 17]: 100 | Plant response rating, Beggarticks [3, 18]: 100 | Plant response rating, Beggarticks [3, 19]: 100 | Plant response rating, Beggarticks [3, 20]: 100 | Plant response rating, Beggarticks [3, 31]: 80 | Plant response rating, Beggarticks [3, 22]: 90 | Plant response rating, Beggarticks [3, 32]: 90 | Plant response rating, Beggarticks [3, 23]: 80 | Plant response rating, Panicum, Fall [4, 17]: 70 | Plant response rating, Panicum, Fall [4, 18]: 90 | Plant response rating, Panicum, Fall [4, 19]: 80 | Plant response rating, Panicum, Fall [4, 20]: 98 | Plant response rating, Panicum, Fall [4, 31]: 40 | Plant response rating, Panicum, Fall [4, 22]: 60 | Plant response rating, Panicum, Fall [4, 32]: 25 | Plant response rating, Panicum, Fall [4, 23]: 65 | Plant response rating, Ragweed [5, 17]: 90 | Plant response rating, Ragweed [5, 18]: 95 | Plant response rating, Ragweed [5, 19]: 95 | Plant response rating, Ragweed [5, 20]: 98 | Plant response rating, Ragweed [5, 31]: 70 | Plant response rating, Ragweed [5, 32]: 50 | Plant response rating, Ragweed [5, 23]: 65 | Plant response rating, Velvetleaf [6, 25]: 70 | Plant response rating, Velvetleaf [6, 30]: 95 | Plant response rating, Velvetleaf [6, 33]: 0 | Plant response rating, Velvetleaf [6, 26]: 50 | Plant response rating, Dayflower, VA [7, 17]: 50 | Plant response rating, Dayflower, VA [7, 18]: 0 | Plant response rating, Dayflower, VA [7, 19]: 60 | Plant response rating, Dayflower, VA [7, 20]: 10 | Plant response rating, Dayflower, VA [7, 31]: 30 | Plant response rating, Dayflower, VA [7, 22]: 30 | Plant response rating, Dayflower, VA [7, 32]: 0 | Plant response rating, Dayflower, VA [7, 23]: 0 | Plant response rating, Horseweed [8, 17]: 85 | Plant response rating, Horseweed [8, 18]: 100 | Plant response rating, Horseweed [8, 20]: 100 | Plant response rating, Horseweed [8, 31]: 80 | Plant response rating, Horseweed [8, 22]: 85 | Plant response rating, Horseweed [8, 32]: 0 | Plant response rating, Horseweed [8, 23]: 0 | Plant response rating, Pigweed, Palmer [9, 17]: 70 | Plant response rating, Pigweed, Palmer [9, 18]: 98 | Plant response rating, Pigweed, Palmer [9, 19]: 70 | Plant response rating, Pigweed, Palmer [9, 20]: 90 | Plant response rating, Pigweed, Palmer [9, 31]: 75 | Plant response rating, Pigweed, Palmer [9, 22]: 70 | Plant response rating, Pigweed, Palmer [9, 32]: 0 | Plant response rating, Pigweed, Palmer [9, 23]: 0 | Plant response rating, Barnyardgrass [10, 17]: 30 | Plant response rating, Barnyardgrass [10, 18]: 20 | Plant response rating, Barnyardgrass [10, 19]: 30 | Plant response rating, Barnyardgrass [10, 20]: 35 | Plant response rating, Barnyardgrass [10, 31]: 15 | Plant response rating, Barnyardgrass [10, 22]: 20 | Plant response rating, Barnyardgrass [10, 32]: 20 | Plant response rating, Nutsedge, Yellow [11, 25]: 10 | Plant response rating, Nutsedge, Yellow [11, 30]: 40 | Plant response rating, Nutsedge, Yellow [11, 33]: 0 | Plant response rating, Nutsedge, Yellow [11, 26]: 0 | Plant response rating, Sandbur [12, 18]: 70 | Plant response rating, Sandbur [12, 19]: 50 | Plant response rating, Sandbur [12, 20]: 75 | Plant response rating, Sandbur [12, 31]: 30 | Plant response rating, Sandbur [12, 22]: 40 | Plant response rating, Sandbur [12, 32]: 0 | Plant response rating, Sandbur [12, 23]: 15 | Plant response rating, Lambsquarters [13, 25]: 100 | Plant response rating, Lambsquarters [13, 30]: 100 | Plant response rating, Lambsquarters [13, 33]: 0 | Plant response rating, Lambsquarters [13, 26]: 0 | Plant response rating, Johnsongrass [14, 25]: 20 | Plant response rating, Johnsongrass [14, 30]: 20 | Plant response rating, Johnsongrass [14, 33]: 0 | Plant response rating, Johnsongrass [14, 26]: 0 | Plant response rating, Corn [15, 17]: 15 | Plant response rating, Corn [15, 18]: 0 | Plant response rating, Corn [15, 19]: 20 | Plant response rating, Corn [15, 20]: 0 | Plant response rating, Corn [15, 31]: 0 | Plant response rating, Corn [15, 22]: 5 | Plant response rating, Corn [15, 32]: 0 | Plant response rating, Corn [15, 23]: 0 | Plant response rating, Foxtail, Green [16, 25]: 30 | Plant response rating, Foxtail, Green [16, 30]: 40 | Plant response rating, Foxtail, Green [16, 33]: 0 | Plant response rating, Foxtail, Green [16, 26]: 0
